Laboratory results published in PubChem BioAssay (NCI).
Values joined by “and” are separate entries in the source; they are usually repeats but may differ in a detail not shown here. Identical values can stand only once.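 48-hour exposure; five concentrations; linearly interpolated endpoints. Here, GI50 denotes the concentration required for 50% inhibition of growth. Definition used: TGI = concentration required for complete inhibition of growth.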

Columns and labels:
Assay in all cases: growth of human tumour cells (NCI), 48 h
[1] = test system: DU-145 prostate
[2] = test system: HS 578T breast
[3] = test system: IGROV1 ovarian
[4] = test system: MCF7 breast
[5] = test system: NCI-H522 lung
[6] = test system: RPMI-8226 leukemia
[7] = test system: RXF 393 renal
[8] = test system: SF-268 CNS
[9] = test system: T-47D breast
[10] = test system: UACC-257 melanoma

| Structure (SMILES) | GI50 [1] | TGI [1] | GI50 [2] | TGI [2] | GI50 [3] | TGI [3] | GI50 [4] [µM] | TGI [4] [µM] | GI50 [5] [µM] | TGI [5] [µM] | GI50 [6] | TGI [6] [µM] | GI50 [7] | TGI [7] | GI50 [8] | TGI [8] | GI50 [9] | TGI [9] | GI50 [10] | TGI [10] [µM] |
| --- | --- | --- | --- | --- | --- | --- | --- | --- | --- | --- | --- | --- | --- | --- | --- | --- | --- | --- | --- | --- |
| O=c1[nH]cnc2c1nnn2[C@@H]1O[C@H](CO)[C@@H](O)[C@H]1O | 1.72 µM | > 100 µM | 17.6 µM | > 100 µM | 2.57 µM | 58.1 µM | 3.29 | > 100 | 4.55 | 63.4 | 2.68 µM | 25 | 4.31 µM | > 100 µM | 28.9 µM | > 100 µM | 4.53 µM | > 100 µM | 28.6 µM | > 100 |
| CC1=Cc2cc3[n-]c(cc4nc(cc5[n-]c(cc1n2)c(C)c5CCC(=O)O)C(CCC(=O)O)=C4C)cc3C.[Cu+2] | 23.5 µM | 85.1 µM | 38.7 µM | > 100 µM | > 1 µM and 12.5 µM | > 1 µM and 35.9 µM | 63.7 | > 100 | 8.84 | 30.4 | > 1 µM and 53.9 µM | > 80 | > 1 µM and 15.4 µM | > 1 µM and 33.9 µM | 10.8 µM and > 1 µM | 36.1 µM and > 1 µM | 47.6 µM | > 100 µM | > 1 µM and 40.8 µM | > 85.4 |
| CCOC(=O)CCc1c(C)c2ccc(O)cc2oc1=O | – | > 100 µM | – | > 100 µM | – | > 100 µM | – | > 100 | – | > 100 | – | > 100 | – | > 100 µM | – | > 100 µM | – | > 100 µM | – | > 100 |
| CCOC(=O)c1ccc2[nH]c(Cc3[nH]c4ccc(C(=O)OCC)cc4c3C)c(C)c2c1 | 3.37 µM | 17.5 µM | 3.29 µM | 23.1 µM | 2.35 µM | 17 µM | 1.98 | 22.6 | 3.27 | 19.2 | 2.66 µM | 35.6 | 2.75 µM | 14.7 µM | 1.41 µM | 15.4 µM | 4.94 µM | 23.9 µM | 9.4 µM | 46.1 |
| Cc1cc(Nc2ncc(Cl)c(Nc3ccccc3S(=O)(=O)C(C)C)n2)c(OC(C)C)cc1C1CCNCC1 | 1.41 µM and 1.53 µM and 1.29 µM | 2.79 µM and 2.88 µM and 2.55 µM | 1.66 µM and 1.94 µM and 1.61 µM | 5.25 µM and 5.34 µM and 4.48 µM | 1.56 µM and 1.12 µM | 3.37 µM and 2.36 µM | 0.552 | 2.04 | 1.52 | 3.06 | 0.753 µM | 2.85 | 1.27 µM | 2.64 µM | 1.61 µM | 3.38 µM | 1.47 µM and 1.57 µM | 3.27 µM and 3.17 µM | 1.24 µM | 2.81 |
| Cc1cc(Nc2nc(N3CCOCC3)nc3ccccc23)n[nH]1 | 13.3 µM | > 100 µM | 1.44 µM | 4.78 µM | 2.12 µM | 27.1 µM | 9.7 | > 100 | 17.4 | > 100 | 22.5 µM | > 100 | 1.35 µM | 6.17 µM | 6.21 µM | 35.2 µM | 9.63 µM | > 100 µM | 87.7 µM | > 100 |
| Nc1nc(F)nc2c1ncn2C1OC(COP(=O)(O)O)C(O)C1O (configuration not stated) | – | 124 µM | – | 379 µM | – | 952 µM | – | 717 | – | 740 | – | 855 | – | 413 µM | – | 874 µM | – | 489 µM | – | 813 |
| Cc1ccc(-c2nc3nc(-c4ccc(Cl)cc4)nc(N4CCCNCC4)c3o2)cc1 | 1.95 µM | 3.59 µM | 1.93 µM | 4.17 µM | 1.65 µM | 3.15 µM | 1.7 | 3.39 | 1.75 | 3.85 | 2.11 µM | 4.74 | 1.58 µM | 3.03 µM | 1.92 µM | 3.97 µM | 1.94 µM | 4.14 µM | 1.91 µM | 3.65 |
| OCC1OC(O)C(N=Cc2ccc3c(c2)OCO3)C(O)C1O (configuration not stated) | – | > 100 µM | – | > 100 µM | – | > 100 µM | – | > 100 | – | > 100 | – | > 100 | – | > 100 µM | – | > 100 µM | – | > 100 µM | – | > 100 |
| c1cncc(-c2cc(-c3cc(-c4cccnc4)n[nH]3)[nH]n2)c1 | – | > 100 µM | – | > 100 µM | – | > 100 µM | – | > 100 | – | > 100 | – | > 100 | – | > 100 µM | – | > 100 µM | – | > 100 µM | – | > 100 |
| CNC(=O)c1ccc(Nc2nc(OC3CCCC3)c3c(-c4ccc5nc(C)oc5c4)c[nH]c3n2)c(OC)c1 | 6.31 µM | > 100 µM | 31.5 µM | > 100 µM | 0.448 µM | > 100 µM | 0.252 | > 100 | 1.67 | > 100 | 0.481 µM | > 20.4 | > 100 µM | > 100 µM | > 47.2 µM | > 100 µM | 0.907 µM | > 100 µM | > 100 µM | > 100 |
| CN(C)c1ccc2[nH]c(O)c(C=Nc3ccc(S(N)(=O)=O)cc3)c2c1 | > 25 µM | > 25 µM | > 25 µM | > 25 µM | > 25 µM | > 25 µM | 19 | > 25 | > 25 | > 25 | > 25 µM | > 25 | > 25 µM | > 25 µM | > 25 µM | > 25 µM | > 25 µM | > 25 µM | > 25 µM | > 25 |
| O=C1C=CC(=O)N1c1ccc2c(c1)Cc1cc(NC(=O)C(F)(F)F)ccc1-2 | – | 30.5 µM | – | 51.9 µM | – | 32.3 µM | – | 34.4 | – | 11.3 | – | 14.3 | – | 23.7 µM | – | 39.7 µM | – | 53.2 µM | – | 35.8 |
| C[C@@H](Oc1cc(-c2cnn(C3CC4(CCNCC4)C3)c2)cnc1N)c1c(F)ccc(Cl)c1Cl | 2.27 µM | 11.5 µM | 1.37 µM | 4.15 µM | 2.23 µM | 7.91 µM | 0.383 | 1.88 | 1.48 | 3.12 | 1.63 µM | 4.95 | 1.35 µM | 2.73 µM | 1.64 µM | 4.71 µM | 1.58 µM | 3.24 µM | 1.47 µM | 2.99 |
| O=C(Nc1nc(-c2ccc(Cl)cc2)cs1)c1ccc(O)c(O)c1 | 4.43 µM | 15.9 µM | 9.45 µM | 53.9 µM | 2.38 µM | 8.04 µM | 5.49 | 43.4 | 1.8 | 9.97 | 2.14 µM | 10.7 | 3.82 µM | 17 µM | 3.54 µM | 13.9 µM | 2.87 µM | 18.5 µM | 6.29 µM | 24.3 |
| O=C(Nc1cccc(-c2nc3ccccc3[nH]2)c1)c1cccc(NC(=O)c2ccco2)c1 | 1.76 µM | 3.15 µM | 2.2 µM | 5.97 µM | 5.34 µM | 17 µM | 1.52 | 3.02 | 2.5 | 6.41 | 2.33 µM | 8.16 | 1.51 µM | 3.55 µM | 1.99 µM | 3.78 µM | 1.75 µM | 3.79 µM | 2.3 µM | 5.34 |
| CN1CCN(Cc2ccc(NC(=O)c3[nH]ncc3Nc3ccnc4ccsc34)cc2)CC1 | 2.17 µM | 11.6 µM | 2.09 µM | 14.4 µM | 2.82 µM | 16.7 µM | 0.489 | 11.7 | 1.98 | 13.5 | 2.95 µM | 7.18 | 2.01 µM | 4.76 µM | 3.22 µM | 11 µM | 4.95 µM | 50.6 µM | 11.6 µM | 30 |
| CC(=O)NC(Cc1c[nH]c2ccccc12)C(=O)O (configuration not stated) | – | > 100 µM | – | > 100 µM | – | > 100 µM | – | > 100 | – | > 100 | – | > 100 | – | > 100 µM | – | > 100 µM | – | > 100 µM | – | > 100 |
| COc1cc2c3c(n(CCCn4ccnc4)c(=O)c2cc1OC)-c1ccccc1C3=O | < 0.0209 µM | – | 11.6 µM | > 100 µM | < 0.01 µM | 0.35 µM | < 0.02 | > 43.4 | < 0.01 | 0.0612 | < 0.0171 µM | 0.355 | < 0.01 µM | – | < 0.0423 µM | > 100 µM | 0.0357 µM | 0.509 µM | – | 0.199 |
| O=C(CSc1nc2sc3c(c2c(=O)n1-c1ccccc1)CCCCC3)N/N=C/c1ccc(F)cc1 | 1.24 µM | 4.3 µM | 1.01 µM | 4.96 µM | 3.32 µM | 19.2 µM | 2.91 | 21 | 6.77 | 33 | 29.5 µM | > 100 | 2.39 µM | 7.18 µM | 2.14 µM | 6.57 µM | 2.34 µM | 24.6 µM | 7.54 µM | > 100 |
